Measurements as given in patent US11691972B2, “Compounds for targeted degradation of BRD9” (C4 Therapeutics, Inc., priority 2020, dated 2023).
Read-outs that look alike come from different tables or passages of the source.

Assays:
PO PK, rat = type: in vivo; conditions: for PO PK AUC(0-last) / PO PK Cmax: dose-normalised; for bioavailability / half-life: in vivo; for bioavailability: read-out: PO PK F%; for half-life: read-out: PO PK t1/2 (converted)
[1] = test system: Yamato-SS xenograft model; test: Tumor volume in the Yamato-SS xenograft (CDX) model; type: in vivo, mouse
PPB, dog = type: in vitro ADME; conditions: plasma
Yamato-SS = test: Synovial sarcoma xenograft model Yamato-SS, tumor volume; type: in vivo; conditions: BALB/c nude mice
Description: (§1) Yamato-SS cells were maintained in vitro until exponential growth phase and inoculated subcutaneously into BALB/c nude mice at the right flank for tumor development. Treatments of Compound 172 were started at the appropriate tumor volume. Mice were treated with 40 mg/kg PO QD of Compound 172 and tumor volumes (x-axis) were measured twice a week using a caliper. The x-axis is time after start of treatment measured in days and the y-axis is tumor volume measured in mm^3.
Yamato-SS cells were maintained in vitro until exponential growth phase and inoculated subcutaneously into BALB/c nude mice at the right flank. Treatments of Compound 172 were started at the appropriate tumor volume. Mice were randomized into groups and treated with 6, 17, or 50 mg/kg PO QD of Compound 172 and tumor volumes (x-axis) were measured twice a week using a caliper. The x-axis is time after start of treatment measured in days and the y-axis is tumor volume measured in mm^3.
as §1, with “176” for “172”, “treated as indicated” for “treated”, “with” for “with 40 mg/kg PO QD of”

PPB, rat = type: in vitro ADME; conditions: plasma
PPB, human = type: in vitro ADME; conditions: plasma
BRD9 = biological target: T1, BRD9 (Homo sapiens, UniProt Q9H8M2); test: HiBiT BRD9 degradation assay in 293T.166 (BRD9-HiBiT) cells; type: cell-based; set-up: endogenously expressing BRD9 with HiBiT fusion tag via CRISPR; host or cells: 293T.166 (BRD9-HiBiT), also expressing LgBiT ectopically
T1 sequence (Q9H8M2 1-597): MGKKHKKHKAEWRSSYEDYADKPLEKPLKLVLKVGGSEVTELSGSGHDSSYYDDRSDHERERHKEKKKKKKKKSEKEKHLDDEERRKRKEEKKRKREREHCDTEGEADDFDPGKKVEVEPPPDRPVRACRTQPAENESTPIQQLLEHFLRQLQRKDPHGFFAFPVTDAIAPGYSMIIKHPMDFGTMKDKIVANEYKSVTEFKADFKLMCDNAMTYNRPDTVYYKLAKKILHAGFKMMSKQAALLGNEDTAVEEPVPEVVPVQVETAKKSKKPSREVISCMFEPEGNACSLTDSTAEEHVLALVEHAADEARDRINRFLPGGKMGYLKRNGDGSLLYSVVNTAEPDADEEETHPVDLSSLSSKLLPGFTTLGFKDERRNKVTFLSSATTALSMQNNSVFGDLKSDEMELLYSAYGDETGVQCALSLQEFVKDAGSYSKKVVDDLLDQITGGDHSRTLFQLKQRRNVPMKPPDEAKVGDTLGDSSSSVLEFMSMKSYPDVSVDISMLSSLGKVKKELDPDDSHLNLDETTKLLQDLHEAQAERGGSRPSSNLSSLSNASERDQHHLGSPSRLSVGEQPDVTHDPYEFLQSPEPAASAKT
How it was run: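 Luminescence from the Nano-Glo HiBiT lytic reagent quantified BRD9 loss after compounds (top 10 μM, half-log, 11 points, duplicates) were incubated 2 h at 37° C. with 10,000 293T.166 BRD9-HiBiT/LgBiT cells per well, with controls lacking compound or lacking reagent.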

PPB, mouse = type: in vitro ADME; conditions: plasma
Plasma stability, rat = type: in vitro ADME
IV PK, rat = type: in vivo; conditions: for IV PK AUC(0-last) / IV PK Cmax: dose-normalised; for clearance / Vd / half-life: in vivo; for clearance: read-out: IV PK CL; for Vd: read-out: IV PK Vdss; for half-life: read-out: IV PK t1/2 (converted)
PO PK, mouse = type: in vivo; conditions: for PO PK AUC(0-last) / PO PK Cmax: dose-normalised; for bioavailability / half-life: in vivo; for bioavailability: read-out: PO PK F%; for half-life: read-out: PO PK t1/2 (converted)
Yamato-SS cells = test: Confluence (growth) over time in Yamato-SS cells; type: cell-based, human
hERG = hERG (Homo sapiens, UniProt Q12809); test: hERG
Sequence of hERG (Q12809 whole entry): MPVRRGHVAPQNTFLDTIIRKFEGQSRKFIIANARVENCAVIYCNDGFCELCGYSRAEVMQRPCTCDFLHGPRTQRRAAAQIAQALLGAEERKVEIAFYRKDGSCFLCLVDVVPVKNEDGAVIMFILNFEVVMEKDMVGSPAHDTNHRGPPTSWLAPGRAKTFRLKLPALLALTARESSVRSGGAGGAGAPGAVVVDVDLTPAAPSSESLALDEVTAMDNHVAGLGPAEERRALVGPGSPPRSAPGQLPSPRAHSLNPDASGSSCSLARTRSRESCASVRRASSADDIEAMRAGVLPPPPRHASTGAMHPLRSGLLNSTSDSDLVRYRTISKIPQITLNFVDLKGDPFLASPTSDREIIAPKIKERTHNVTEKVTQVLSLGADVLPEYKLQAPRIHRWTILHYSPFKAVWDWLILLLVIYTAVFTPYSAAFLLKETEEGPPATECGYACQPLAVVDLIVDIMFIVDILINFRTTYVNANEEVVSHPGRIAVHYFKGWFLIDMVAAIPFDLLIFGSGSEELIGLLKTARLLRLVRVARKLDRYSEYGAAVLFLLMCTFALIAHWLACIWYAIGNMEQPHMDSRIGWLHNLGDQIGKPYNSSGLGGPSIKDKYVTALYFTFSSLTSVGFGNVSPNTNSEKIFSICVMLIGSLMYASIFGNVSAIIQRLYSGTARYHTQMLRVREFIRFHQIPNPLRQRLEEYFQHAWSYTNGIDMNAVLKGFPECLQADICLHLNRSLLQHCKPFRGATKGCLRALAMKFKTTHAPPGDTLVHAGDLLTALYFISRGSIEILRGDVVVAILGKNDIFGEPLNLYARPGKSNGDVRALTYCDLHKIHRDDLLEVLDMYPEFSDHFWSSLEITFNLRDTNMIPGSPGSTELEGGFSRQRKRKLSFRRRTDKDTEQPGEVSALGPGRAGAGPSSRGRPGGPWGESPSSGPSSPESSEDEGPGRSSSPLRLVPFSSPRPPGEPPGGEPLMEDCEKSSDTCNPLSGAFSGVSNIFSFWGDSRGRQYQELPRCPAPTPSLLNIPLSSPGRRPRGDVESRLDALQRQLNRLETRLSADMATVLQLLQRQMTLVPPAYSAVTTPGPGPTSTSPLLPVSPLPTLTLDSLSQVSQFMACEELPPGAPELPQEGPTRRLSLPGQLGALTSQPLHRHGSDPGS

[2] = Hepatocyte stability, dog; type: in vitro ADME; conditions: dog hepatocytes; read-out: Hepatocyte stability, Clint scaled ws
Plasma stability, dog = type: in vitro ADME
[3] = Table 1, 293T.166 cells, 2.0 hours, class symbols, read-out: HiBiT-Degradation 293T.166 BRD9 2.0 hours (DC50)

Structure (SMILES)	PO PK AUC(0-last) (PO PK, rat)	PO PK Cmax (PO PK, rat)	bioavailability (PO PK, rat) [%]	half-life (PO PK, rat) [h]	fraction unbound (PPB, dog)	fraction unbound (PPB, rat)	fraction unbound (PPB, human)	DC50 (BRD9; [3]) [nM]	fraction unbound (PPB, mouse)	Stability (plasma) % remaining @3 hrs (Plasma stability, rat) [%]	IV PK AUC(0-last) (IV PK, rat)	IV PK Cmax (IV PK, rat)	clearance (IV PK, rat) [mL/min/kg]	Vd (IV PK, rat) [L/kg]	half-life (IV PK, rat) [h]	PO PK AUC(0-last) (PO PK, mouse)	PO PK Cmax (PO PK, mouse)	bioavailability (PO PK, mouse) [%]	half-life (PO PK, mouse) [h]	IC50 (hERG) [nM]	further results
COc1cc(-c2cn(C)c(=O)c(C)c2C)cc(OC)c1CN1CCC(N2CCN(c3ccc(NC4CCC(=O)NC4=O)cc3F)CC2)C(F)(F)C1 (single isomer, unassigned) [Compound 176, 3-[4-[4-[1-[[2,6-dimethoxy-4-(1,4,5-trimethyl-6-oxo-3-pyridyl)phenyl]methyl]-3,3-difluoro-4-piperidyl]piperazin-1-yl]-3-fluoro-anilino]piperidine-2,6-dione]	656 (h*ng/mL)/(mg/kg)	75 (ng/mL)/(mg/kg)	83	5.1	0.065	0.098	0.067	< 100	0.034	88	771 (h*ng/mL)/(mg/kg)	439 [ng/mL]/(mg/kg)	21.6	6.7	4	1999 (h*ng/mL)/(mg/kg)	346 (ng/mL)/(mg/kg)	74	3.5	> 30000	mean tumor volume+SEM ([1]; synovial sarcoma CDX model (Yamato SS), various concentrations, FIG. 21): efficacy; tumor volume after treatment, Yamato-SS xenograft (Yamato-SS; treated as indicated, FIG. 21): strong effect; confluence as a percentage of control, single dose long term growth evaluation (Yamato-SS cells; BAF perturbed Yamato-SS model, various concentrations, FIG. 16): selective growth inhibition; CLint scaled [2]: 8.6 mL/min/kg; Stability (plasma) % remaining @3 hrs (Plasma stability, dog): 100%
COc1cc(-c2cn(C)c(=O)c(C)c2C)cc(OC)c1CN1CCC(N2CCN(c3ccc(NC4CCC(=O)NC4=O)cc3F)CC2)C(F)(F)C1 (centres unmarked) [Compound 172, 3-[4-[4-[1-[[2,6-dimethoxy-4-(1,4,5-trimethyl-6-oxo-3-pyridyl)phenyl]methyl]-3,3-difluoro-4-piperidyl]piperazin-1-yl]-3-fluoro-anilino]piperidine-2,6-dione]	520 (h*ng/mL)/(mg/kg)	92 (ng/mL)/(mg/kg)	49	4.3	0.039	0.083	0.088	< 100	0.018	97.0	1230 (h*ng/mL)/(mg/kg)	517 [ng/mL]/(mg/kg)	16	7.9	9.5	5947 (h*ng/mL)/(mg/kg)	844 (ng/mL)/(mg/kg)	122	3.3	> 30000	response of tumor volume to various concentrations ([1]; Yamato-SS xenograft model, FIG. 7): dose dependent efficacy; tumor volume after treatment, Yamato-SS xenograft (Yamato-SS; 40 mg/kg PO QD, FIG. 1): strong effect; tumor volume after treatment, Yamato-SS xenograft, dose response (Yamato-SS; 6, 17, or 50 mg/kg PO QD, FIG. 7): dose dependent efficacy; BRD9 degradation (2 h), Kendo 17 h, percent (BRD9; 2 h): 5%; DC50 (BRD9; 2 h, read-out: BRD9 degradation (2 h), Kendo 17 h, concentration): 3.4 nM; confluence as a percentage of control over time (Yamato-SS cells; Yamato-SS cells, FIG. 4): growth inhibition; CLint scaled [2]: 2 mL/min/kg; Stability (plasma) % remaining @3 hrs (Plasma stability, dog): 80.2%
